Test results taken from ChEMBL document CHEMBL1151339, “Antitumor agents from bohemic acid complex, III. The isolation of marcellomycin, musettamycin, rudolphomycin, mimimycin, collinemycin, alcindoromycin, and bohemamine” (J Nat Prod, 1980).
Values after ≈ are worked out from the molar mass of the structure shown.

Legend:
Mus musculus [1] = test: Toxicity in BDF1 mouse xenografted with mouse L1210 cells assessed as survival at 6.4 mg/kg, ip after 5 days; type: organism-based; design: dose 6.4 mg/kg, route intraperitoneal; settings: in vivo, 120 h
Mus musculus [2] = test: Toxicity in BDF1 mouse xenografted with mouse L1210 cells assessed as survival at 3.2 mg/kg, ip after 5 days; type: organism-based; design: dose 3.2 mg/kg, route intraperitoneal; settings: in vivo, 120 h
Mus musculus [3] = test: Toxicity in BDF1 mouse xenografted with mouse L1210 cells assessed as survival at 1.6 mg/kg, ip after 5 days; type: organism-based; design: dose 1.6 mg/kg, route intraperitoneal; settings: in vivo, 120 h
Pseudomonas aeruginosa = test: Antibacterial activity against Pseudomonas aeruginosa A-9843A by 2-fold tube dilution method; type: functional
Enterococcus faecalis = test: Antibacterial activity against Streptococcus faecalis A20688 by 2-fold tube dilution method; type: functional
Staphylococcus = test: Antibacterial activity against penicillin resistant Staphylococcus A-9606 by 2-fold tube dilution method; type: functional
Streptococcus pneumoniae = test: Antibacterial activity against Streptococcus pneumoniae A-9585 by 2-fold tube dilution method; type: functional
Streptococcus pyogenes = test: Antibacterial activity against Streptococcus pyogenes A-9604 by 2-fold tube dilution method; type: functional
Staphylococcus aureus = test: Antibacterial activity against Staphylococcus aureus A-9497 by 2-fold tube dilution method; type: functional
Escherichia coli [4] = test: Antibacterial activity against Escherichia coli A15119 by 2-fold tube dilution method; type: functional
Escherichia coli [5] = test: Antibacterial activity against Escherichia coli A20341-1 by 2-fold tube dilution method; type: functional
Klebsiella pneumoniae = test: Antibacterial activity against Klebsiella pneumoniae A15130 by 2-fold tube dilution method; type: functional
Proteus mirabilis = test: Antibacterial activity against Proteus mirabilis A-9900 by 2-fold tube dilution method; type: functional
Proteus vulgaris = test: Antibacterial activity against Proteus vulgaris A21559 by 2-fold tube dilution method; type: functional
Serratia marcescens = test: Antibacterial activity against Serratia marcescens A20019 by 2-fold tube dilution method; type: functional
Enterobacter cloacae = test: Antibacterial activity against Enterobacter cloacae A-9659 by 2-fold tube dilution method; type: functional
Candida albicans [6] = test: Antifungal activity against Candida albicans A-9540 by 2-fold tube dilution method; type: functional
Candida albicans [7] = test: Antifungal activity against Candida albicans A15049 by 2-fold tube dilution method; type: functional
Candida albicans [8] = test: Antifungal activity against Candida albicans A15050 by 2-fold tube dilution method; type: functional
Candida tropicalis = test: Antifungal activity against Candida tropicalis A15051 by 2-fold tube dilution method; type: functional
Pichia kudriavzevii = test: Antifungal activity against Candida krusei A15052 by 2-fold tube dilution method; type: functional
[9] = system: Trichophyton mentagrophytes; test: Antifungal activity against Trichophyton mentagrophytes A-9870 by 2-fold tube dilution method; type: functional
Microsporum canis = test: Antifungal activity against Microsporum canis A-9872 by 2-fold tube dilution method; type: functional
L1210 [10] = test: Antitumor activity against mouse L1210 cells xenografted in BDF1 mouse assessed as median survival time at 12.8 mg/kg, ip; type: functional; settings: route intraperitoneal
L1210 [11] = test: Antitumor activity against mouse L1210 cells xenografted in BDF1 mouse assessed as median survival time at 6.4 mg/kg, ip; type: functional; settings: route intraperitoneal
L1210 [12] = test: Antitumor activity against mouse L1210 cells xenografted in BDF1 mouse assessed as median survival time at 3.2 mg/kg, ip; type: functional; settings: route intraperitoneal
L1210 [13] = test: Antitumor activity against mouse L1210 cells xenografted in BDF1 mouse assessed as median survival time at 1.6 mg/kg, ip; type: functional; settings: route intraperitoneal
L1210 [14] = test: Antitumor activity against mouse L1210 cells xenografted in BDF1 mouse assessed as median survival time at 51.2 mg/kg, ip; type: functional; settings: route intraperitoneal
L1210 [15] = test: Antitumor activity against mouse L1210 cells xenografted in BDF1 mouse assessed as median survival time at 25.6 mg/kg, ip; type: functional; settings: route intraperitoneal
L1210 [16] = test: Antitumor activity against mouse L1210 cells xenografted in BDF1 mouse at 12.8 mg/kg, ip relative to control; type: functional; settings: route intraperitoneal
L1210 [17] = test: Antitumor activity against mouse L1210 cells xenografted in BDF1 mouse at 6.4 mg/kg, ip relative to control; type: functional; settings: route intraperitoneal
L1210 [18] = test: Antitumor activity against mouse L1210 cells xenografted in BDF1 mouse at 3.2 mg/kg, ip relative to control; type: functional; settings: route intraperitoneal
L1210 [19] = test: Antitumor activity against mouse L1210 cells xenografted in BDF1 mouse at 1.6 mg/kg, ip relative to control; type: functional; settings: route intraperitoneal
L1210 [20] = test: Antitumor activity against mouse L1210 cells xenografted in BDF1 mouse at 51.2 mg/kg, ip relative to control; type: functional; settings: route intraperitoneal
L1210 [21] = test: Antitumor activity against mouse L1210 cells xenografted in BDF1 mouse at 25.6 mg/kg, ip relative to control; type: functional; settings: route intraperitoneal
L1210 [22] = test: Antitumor activity against mouse L1210 cells xenografted in BDF1 mouse assessed as change in tumor average weight at 12.8 mg/kg, ip; type: functional; settings: route intraperitoneal
L1210 [23] = test: Antitumor activity against mouse L1210 cells xenografted in BDF1 mouse assessed as change in tumor average weight at 6.4 mg/kg, ip; type: functional; settings: route intraperitoneal
L1210 [24] = test: Antitumor activity against mouse L1210 cells xenografted in BDF1 mouse assessed as change in tumor average weight at 3.2 mg/kg, ip; type: functional; settings: route intraperitoneal
L1210 [25] = test: Antitumor activity against mouse L1210 cells xenografted in BDF1 mouse assessed as change in tumor average weight at 1.6 mg/kg, ip; type: functional; settings: route intraperitoneal
L1210 [26] = test: Antitumor activity against mouse L1210 cells xenografted in BDF1 mouse assessed as change in tumor average weight at 51.2 mg/kg, ip; type: functional; settings: route intraperitoneal
L1210 [27] = test: Antitumor activity against mouse L1210 cells xenografted in BDF1 mouse assessed as change in tumor average weight at 25.6 mg/kg, ip; type: functional; settings: route intraperitoneal
Mus musculus [28] = test: Toxicity in BDF1 mouse xenografted with mouse L1210 cells assessed as survival at 12.8 mg/kg, ip after 5 days; type: organism-based; design: dose 12.8 mg/kg, route intraperitoneal; settings: in vivo, 120 h

CC[C@@]1(O)C[C@H](O[C@H]2C[C@H](N(C)C)[C@H](O[C@H]3C[C@H](O)[C@H](O)[C@@H](C)O3)[C@@H](C)O2)c2c(cc3c(c2O)C(=O)c2c(O)ccc(O)c2C3=O)[C@H]1C(=O)OC [COLLINEMYCIN]
Activity (Mus musculus [1]): Non-toxic
Activity (Mus musculus [2]): Non-toxic
Activity (Mus musculus [3]): Non-toxic
MIC (Pseudomonas aeruginosa): > 125 µg/mL
MIC (Enterococcus faecalis): 63 µg/mL (≈ 88 µM)
MIC (Staphylococcus): 63 µg/mL (≈ 88 µM)
MIC (Streptococcus pneumoniae): 2 µg/mL (≈ 2.79 µM)
MIC (Streptococcus pyogenes): 8 µg/mL (≈ 11.2 µM)
MIC (Staphylococcus aureus): 16 µg/mL (≈ 22.4 µM)
MIC (Escherichia coli [4]): > 125 µg/mL
MIC (Escherichia coli [5]): > 125 µg/mL
MIC (Klebsiella pneumoniae): > 125 µg/mL
MIC (Proteus mirabilis): > 125 µg/mL
MIC (Proteus vulgaris): > 125 µg/mL
MIC (Serratia marcescens): > 125 µg/mL
MIC (Enterobacter cloacae): > 125 µg/mL
MIC (Candida albicans [6]): > 16 µg/mL
MIC (Candida albicans [7]): > 16 µg/mL
MIC (Candida albicans [8]): > 16 µg/mL
MIC (Candida tropicalis): > 16 µg/mL
MIC (Pichia kudriavzevii): > 16 µg/mL
MIC [9]: > 16 µg/mL
MIC (Microsporum canis): > 16 µg/mL
Activity (L1210 [10]): 10 days
Activity (L1210 [11]): 8 days
Activity (L1210 [12]): 8 days
Activity (L1210 [13]): 8 days
Activity (L1210 [14]): 11 days
Activity (L1210 [15]): 11 days
T/C (L1210 [16]): 133%
T/C (L1210 [17]): 107%
T/C (L1210 [18]): 107%
T/C (L1210 [19]): 107%
T/C (L1210 [20]): 147%
T/C (L1210 [21]): 147%
Activity (L1210 [22]): -2.3 g
Activity (L1210 [23]): -1.2 g
Activity (L1210 [24]): 1.3 g
Activity (L1210 [25]): -0.3 g
Activity (L1210 [26]): -2.5 g
Activity (L1210 [27]): -4.2 g
Activity (Mus musculus [28]): Non-toxic

CC[C@@]1(O)C[C@H](O[C@H]2C[C@H](N(C)C)[C@H](O[C@H]3C[C@H](O)[C@H](O[C@@H]4C[C@H](O)[C@H](O)[C@H](C)O4)[C@H](C)O3)[C@@H](C)O2)c2c(cc3c(c2O)C(=O)c2c(O)ccc(O)c2C3=O)[C@@H]1C(=O)OC [MIMIMYCIN]
Activity (Mus musculus [1]): Non-toxic
Activity (Mus musculus [2]): Non-toxic
Activity (Mus musculus [3]): Non-toxic
MIC (Pseudomonas aeruginosa): > 125 µg/mL
MIC (Enterococcus faecalis): 4 µg/mL (≈ 4.73 µM)
MIC (Staphylococcus): 63 µg/mL (≈ 74.5 µM)
MIC (Streptococcus pneumoniae): 1 µg/mL (≈ 1.18 µM)
MIC (Streptococcus pyogenes): 2 µg/mL (≈ 2.36 µM)
MIC (Staphylococcus aureus): 8 µg/mL (≈ 9.46 µM)
MIC (Escherichia coli [4]): > 125 µg/mL
MIC (Escherichia coli [5]): > 125 µg/mL
MIC (Klebsiella pneumoniae): > 125 µg/mL
MIC (Proteus mirabilis): > 125 µg/mL
MIC (Proteus vulgaris): > 125 µg/mL
MIC (Serratia marcescens): > 125 µg/mL
MIC (Enterobacter cloacae): > 125 µg/mL
MIC (Candida albicans [6]): > 16 µg/mL
MIC (Candida albicans [7]): > 16 µg/mL
MIC (Candida albicans [8]): > 16 µg/mL
MIC (Candida tropicalis): > 16 µg/mL
MIC (Pichia kudriavzevii): > 16 µg/mL
MIC [9]: > 16 µg/mL
MIC (Microsporum canis): > 16 µg/mL
Activity (L1210 [10]): 8.5 days
Activity (L1210 [11]): 9 days
Activity (L1210 [12]): 8 days
Activity (L1210 [13]): 7.5 days
Activity (L1210 [14]): 10 days
Activity (L1210 [15]): 8 days
T/C (L1210 [16]): 113%
T/C (L1210 [17]): 120%
T/C (L1210 [18]): 107%
T/C (L1210 [19]): 100%
T/C (L1210 [20]): 133%
T/C (L1210 [21]): 107%
Activity (L1210 [22]): -0.3 g
Activity (L1210 [23]): -1.3 g
Activity (L1210 [24]): 1.3 g
Activity (L1210 [25]): 0.5 g
Activity (L1210 [26]): -3.2 g
Activity (L1210 [27]): 0.1 g
Activity (Mus musculus [28]): Non-toxic
